Reference: paper PMC8200345 (American Journal of Clinical Dermatology, 2021)
Like-named read-outs stand apart in the source and are kept apart here.

How the values were obtained:
[1] = cited from earlier work
[2] = phase III studies combined
Phase II study = assay type: in vivo, human (adult patients with atopic dermatitis); conditions: Phase II SLR (QD only); log-transformed Ctrough week 4 vs API dose
[3] = human, in vivo
[4] = cited from earlier work; remark: listed apart in the source
[5] = any of the three studies in atopic dermatitis

N#CC[C@H](C1CCCC1)n1cc(-c2ncnc3[nH]ccc23)cn1 [ruxolitinib]
Bioavailability after oral dosing [1]: near-complete
Correlation between ruxolitinib Css quartiles and absolute neutrophil count [2]: no correlation
Dose-PK model: exponent on API dose (regression slope), estimate (Phase II study): 0.805
Dose-PK model: exponent on API dose (regression slope), estimate [3]: 0.801
Dose-PK model: exponent on API dose, estimate [3]: 0.462
Dose-PK model: exponent on baseline IGA 3, estimate [3]: 0.322
Dose-PK model: exponent on region = Europe, estimate [3]: 0.782
Mean Css as percent of the whole blood IC50 value [3]: < 15%
Average Css ([4]; 25 mg BID oral): ~ 350 nM
Maximum tolerated dose ([4]; oral, patients with myelofibrosis): 25 mg BID
Changes in hematological parameters [5]: no clinically relevant changes
